Earlier results, collected in patent US6462088B1, “Disinfecting preparation containing chlorine in alcohol” (priority 1998, dated 2002).

Settings: 25° C., aqueous solution; for E0 standard oxidation potential, Ref. b): Ullmann's Encyclopedia

Compound	E0 standard oxidation potential, Ref. a) (Rice and Gomez-Taylor) [V]	E0 standard oxidation potential, Ref. b) [V]
OCl [Hypochlorous acid]	1.49	1.50
Hypochlorite ion	–	0.90
